target: T1, androgen receptor (adenovirus AdEasy+rAR in L929 cells) (Rattus norvegicus, UniProt P15207); assay: L929 Androgen Receptor Functional Assay, Adenovirus Transduction; type: cell-based; details: L929 agonist testing; 3000 nM
T1 construct: expressed in transfected cells
T1 sequence (P15207 1-902): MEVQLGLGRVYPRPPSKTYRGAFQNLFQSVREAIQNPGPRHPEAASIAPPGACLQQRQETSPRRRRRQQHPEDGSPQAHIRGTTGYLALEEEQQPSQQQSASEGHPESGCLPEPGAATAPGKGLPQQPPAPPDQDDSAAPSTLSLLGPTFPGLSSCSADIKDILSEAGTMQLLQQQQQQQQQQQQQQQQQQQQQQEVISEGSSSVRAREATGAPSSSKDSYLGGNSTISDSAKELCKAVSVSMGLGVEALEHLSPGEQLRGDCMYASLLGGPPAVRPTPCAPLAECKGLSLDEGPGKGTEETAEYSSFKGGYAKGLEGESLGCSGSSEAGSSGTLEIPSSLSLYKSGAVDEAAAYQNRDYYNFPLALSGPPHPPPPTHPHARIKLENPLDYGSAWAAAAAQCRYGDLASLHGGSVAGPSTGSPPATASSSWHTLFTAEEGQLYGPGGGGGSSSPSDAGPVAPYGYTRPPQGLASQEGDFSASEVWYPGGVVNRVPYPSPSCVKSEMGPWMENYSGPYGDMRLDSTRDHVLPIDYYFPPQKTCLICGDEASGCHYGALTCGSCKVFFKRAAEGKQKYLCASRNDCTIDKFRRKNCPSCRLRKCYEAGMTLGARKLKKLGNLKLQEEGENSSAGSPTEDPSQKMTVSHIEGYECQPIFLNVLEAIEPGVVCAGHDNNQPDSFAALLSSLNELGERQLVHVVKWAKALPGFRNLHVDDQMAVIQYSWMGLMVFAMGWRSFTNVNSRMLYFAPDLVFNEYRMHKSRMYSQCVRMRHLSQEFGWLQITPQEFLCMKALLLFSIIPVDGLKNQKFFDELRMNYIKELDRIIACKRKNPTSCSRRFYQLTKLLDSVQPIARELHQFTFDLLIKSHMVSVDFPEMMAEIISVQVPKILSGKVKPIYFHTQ
Experimental: L929 cells were plated in 96-well plates at 20,000 cells per well, in DMEM/F12 (GIBCO) containing 10% (v/v) charcoal-treated fetal bovine serum (Hyclone) and lacking phenol red. The plates were then incubated overnight at 37° C. in 5% (v/v) humidified CO2.
Test compound dilutions were prepared in 100% (v/v) DMSO, if necessary. Each dilution was made to 1250× the final desired assay concentration.
First, 2 mL of DMEM/F12 lacking phenol red was pipetted into the wells of a 2-mL 96-well assay block. Next, 4 μL of the 1250× test compound dilutions were pipetted into each well of the assay block. The mixtures within the well were then carefully mixed by pipette.
In a 15 mL or 50 mL sterile centrifuge tube, a 2.5 nM (2.5×) dilution of R1881 (methyl-trienolone) in DMEM/F12 lacking phenol red was prepared.
In a second 15 mL or 50 mL centrifuge tube a solution containing an equal volume of DMEM to the first and an equal volume of 100% (v/v) DMSO to the volume of R1881 used in the first tube was prepared.
In a 15 mL or 50 mL sterile centrifuge tube, a dilution in DMEM/F12 of the adenovirus AdEasy+rAR at an moi of 1:500 per well was prepared.
The medium was removed from the 96-well plates by inversion and dried, inverted, very briefly. As soon as possible after medium removal, 40 μL of the diluted unlabeled test compound was added to each well, in duplicate. To each well designated for antagonist testing was added 40 μL of the 2.5 nM R1881 dilution to the wells for antagonist testing. To each well designated for agonist testing was added 40 μL of the DMSO dilution. Then 20 μL of the diluted adenovirus were added to all wells. The plates were incubated for 48 hours at 37° C. in 5% (v/v) humidified CO2.
To each well was added 100 μL of Steady-Glo luciferase assay substrate (Promega) and the plates were placed on a rotary shaker for 1 min. The plates were then incubated at room temperature in the dark for one hour. The contents of each well were then transferred to a white microtiter plate (Packard) and read on a Luminoskan Ascent (Thermo Lab Systems).
L929 AR percent activity was determined by testing dilutions of the test compound using a concentration of 3000 nM unless otherwise noted. L929 percent inhibition was determined by testing dilutions of the test compound using a concentration of 3000 nM. […] Luciferase activity per well were measured and EC50s and IC50s determined by linear regression.

Structure (SMILES)	% Activity
CCCSCC(C)(O)c1cc2cc(Cl)c(C(F)(F)F)cc2[nH]1 (racemic) [compound 196]	13%
CC(O)(CSc1ccccc1N)c1cc2cc(Cl)c(C(F)(F)F)cc2[nH]1 (centres unmarked) [compound 123]	−4%
CC(O)(CSc1ccc(N)cc1)c1cc2cc(Cl)c(C(F)(F)F)cc2n1S(C)(=O)=O (racemic) [compound 125]	−5%
CC(O)(CSCC(F)(F)F)c1cc2cc(C#N)c(C(F)(F)F)cc2[nH]1 (racemic) [compound 211]	−1%

same assay, conditions: L929 agonist testing; 3000 nM; 3 µM

Structure (SMILES)	% Activity
CSCC(C)(O)c1cc2cc([N+](=O)[O-])c(C(F)(F)F)cc2[nH]1 (single isomer, unassigned) [compound 144]	0%

same assay, conditions: L929 agonist testing; @ 8000 nM

Structure (SMILES)	% Activity
CC(O)(CSc1ccccc1N)c1cc2cc(Cl)c(C(F)(F)F)cc2[nH]1 (centres unmarked) [compound 123]	1 @ 8000 nM %

test system: testosterone-enhanced ventral prostate and seminal vesicle weights in castrated male Sprague Dawley rats; assay: Ventral Prostate and Seminal Vesicle Weight In Vivo Assay; design: species or system rat; details: immature castrated rats; once daily for five days, usually orally at 40 mg/kg, with testosterone propionate 2 mg/kg s.c.
Experimental: Immature (approximately 50 g) castrated male Sprague Dawley rats (Charles River) were treated once daily for five days with test compound (usually given orally at 40 mg/kg in a volume of 0.3 mL, in 30% cyclodextrin or 0.5% methylcellulose vehicle) and with testosterone propionate (given subcutaneously by injection at the nape of the neck at 2 mg/kg, in a volume of 0.1 mL in sesame oil). On the sixth day, the rats were euthanized by asphyxiation in carbon dioxide. Ventral prostates and seminal vesicles were removed and their wet weights determined.
A test compound was said to be “active” if the non weight adjusted prostate weight was ≦40 mg or the % Inhibition prostate weight, body weight adjusted was ≧40% @2 mg/day dosage.

Structure (SMILES)	active / inactive (inhibition of testosterone-enhanced prostate weight)
CCCSCC(C)(O)c1cc2cc(Cl)c(C(F)(F)F)cc2[nH]1 (racemic) [compound 196]	inactive
CC(O)(CSc1ccccc1N)c1cc2cc(Cl)c(C(F)(F)F)cc2[nH]1 (centres unmarked) [compound 123]	inactive
CC[S+]([O-])CC(C)(O)c1[nH]c2cc(C(F)(F)F)c(C#N)cc2c1C (mixture of isomers) [compound 319]	active
CC(C)(O[Si](C)(C)C)c1cc2cc(Cl)c(C(F)(F)F)cc2n1S(C)(=O)=O [compound 270]	inactive
C=Cc1c(C(C)(C)O)[nH]c2cc(C(F)(F)F)c([N+](=O)[O-])cc12 [compound 281]	inactive
CC(O)(c1[nH]c2cc(C(F)(F)F)c(C#N)cc2c1C#C[Si](C)(C)C)C(F)(F)F (single isomer, unassigned) [compound 347]	active
CC[S+]([O-])CC(C)(O)c1[nH]c2cc(C(F)(F)F)c(C#N)cc2c1C (mixture of isomers) [compound 245]	inactive
CCSCC(C)(O)c1cc2nc(C#N)ccc2[nH]1 (racemic) [compound 6]	inactive
CCSCC(C)(O)c1cc2cc(C#N)c(C(F)(F)F)cc2n1CC (racemic) [compound 243]	active
CC(O)(C[S+]([O-])CC(F)(F)F)c1cc2cc([N+](=O)[O-])c(C(F)(F)F)cc2[nH]1 (mixture of isomers) [compound 205]	active
CCS(=O)(=O)CC(C)(O)c1cc2cc(Cl)c(C(F)(F)F)cc2[nH]1 (racemic) [compound 404]	active
CCSCC(C)(O)c1c(C)c2cc(C#N)c(C(F)(F)F)cc2n1C (single isomer, unassigned) [compound 318]	inactive
CCS(=O)(=O)CC(C)(O)c1cc2cc(C#N)c(C(F)(F)F)cc2[nH]1 (single isomer, unassigned) [compound 397]	inactive
CCSCC(C)(O)c1cc2cc(C#N)c(C(F)(F)F)cc2n1CC#N (racemic) [compound 323]	inactive
CCSCC(C)(CO)c1cc2cc([N+](=O)[O-])c(C(F)(F)F)cc2[nH]1 (centres unmarked) [compound 11]	inactive
C#Cc1c(C(C)(O)CSCC)[nH]c2cc(C(F)(F)F)c(C#N)cc12 (racemic) [compound 326]	inactive
N#Cc1cc2cc(C(O)(C(F)(F)F)C(F)(F)F)[nH]c2cc1C(F)(F)F [compound 357]	active
CSCC(O)c1cc2cc(C#N)c(C(F)(F)F)cc2[nH]1 (racemic) [compound 408]	inactive

Structure (SMILES)	active / inactive (inhibition of testosterone-enhanced prostate weight)
CCSCC(C)(O)c1[nH]c2cc(C(F)(F)F)c(C#N)cc2c1CC (racemic) [compound 344]	active
CC(C)(O[Si](C)(C)C)c1cc2cc([N+](=O)[O-])c(C(F)(F)F)cc2n1S(C)(=O)=O [compound 269]	inactive
CCSCC(O)c1[nH]c2cc(C(F)(F)F)c(C#N)cc2c1Br (racemic) [compound 413]	inactive
CCSCC(C)(O)c1cc2cc(N)c(C(F)(F)F)cc2[nH]1 (centres unmarked) [compound 166]	inactive
COCn1c(C(C)(O)C(F)(F)F)cc2cc(C#N)c(C(F)(F)F)cc21 (racemic) [compound 332]	active
CCSCC(C)(O)c1[nH]c2cc(C(F)(F)F)c([N+](=O)[O-])cc2c1I (single isomer, unassigned) [compound 244]	active
CCSCC(C)(O)c1cc2cc(C#N)c(OC)cc2[nH]1 (racemic) [compound 445]	inactive
CC(C)(O)c1[nH]c2cc(C(F)(F)F)c([N+](=O)[O-])cc2c1Br [compound 277]	active
CC(O)(c1[nH]c2cc(C(F)(F)F)c(C#N)cc2c1Cl)C(F)(F)F (single isomer, unassigned) [compound 345]	active
CCSCC(C)(O)c1cc2cc(C#N)c(Cl)cc2[nH]1 (racemic) [compound 224]	active
CCS(=O)(=O)CC(C)(O)c1cc2cc([N+](=O)[O-])c(C(F)(F)F)cc2n1C (single isomer, unassigned) [compound 250]	active
CC(C)(O)c1[nH]c2cc(C(F)(F)F)c([N+](=O)[O-])cc2c1Cl [compound 275]	active
CCSCC(C)(O)c1c(C)c2cc(C#N)c(C(F)(F)F)cc2n1C (single isomer, unassigned) [compound 317]	inactive
CCSCC(C)(O)c1cc2cc(C#N)c(C)cc2[nH]1 (racemic) [compound 446]	inactive
CC(C)(O)c1[nH]c2cc(C(F)(F)F)c(Cl)cc2c1Cl [compound 282]	inactive
CC(C)(O)c1cc2cc(Cl)c(C(F)(F)F)cc2n1S(C)(=O)=O [compound 284]	active
CCSCC(C)(O)c1cc2cc(Cl)ccc2[nH]1 (racemic) [compound 353]	inactive

Reference: patent US8394971B2, “Indole derivatives as selective androgen receptor modulators (SARMS)” (Janssen Pharmaceutica N.V., priority 2004, dated 2013)
